Measured values reported in ChEMBL document CHEMBL5352406 (Eur J Med Chem, 2022).
Blank lines part the entries; values can stand above or below the molecule they belong to.

Legend:
CDK2/Cyclin A2 = CDK2/Cyclin A2 (Homo sapiens, UniProt P24941); assay type: protein-complex assay
Description: Inhibition of human full length CDK2/CyclinA2 by ADP-Glo kinase assay

HCT-116 [1] = assay: Antiproliferative activity against human HCT-116 cells assessed as cell growth inhibition after 72 hrs by MTT assay; assay type: functional
SW480 = assay: Antiproliferative activity against human SW480 cells assessed as cell growth inhibition after 72 hrs by MTT assay; assay type: functional
A549 = assay: Antiproliferative activity against human A549 cells assessed as cell growth inhibition after 72 hrs by MTT assay; assay type: functional
MCF7 = assay: Antiproliferative activity against human MCF7 cells assessed as cell growth inhibition after 72 hrs by MTT assay; assay type: functional
Acetylcholinesterase = Acetylcholinesterase (Electrophorus electricus, UniProt O42275); assay: Inhibition of electric eel AChE using acetylthiocholine […] as substrate for 20 mins by Ellman's method
Cholinesterase = Cholinesterase (Equus caballus, UniProt P81908); assay: Inhibition of equine serum BuChE using […] as substrate for 20 mins by Ellman's method
[2] = biological target: CDK9/cyclin T1 (Homo sapiens) (UniProt O60563+P50750); assay: Inhibition of CDK9/CyclinT1 (unknown origin) at 500 nM by ADP-Glo kinase assay relative to control; assay type: protein-complex assay
[3] = biological target: CDK2/Cyclin A2 (Homo sapiens) (UniProt P24941+P20248); assay: Inhibition of human full length CDK2/CyclinA2 at 500 nM by ADP-Glo kinase assay relative to control; assay type: protein-complex assay
CDK9/cyclin T1 = CDK9/cyclin T1 (Homo sapiens, UniProt P50750)
Description: Inhibition of CDK9/CyclinT1 (unknown origin) by ADP-Glo kinase assay

[4] = Selectivity index, ratio of IC50 for electric eel AChE to IC50 for CDK9/CyclinT1 (unknown origin)
[5] = Selectivity index, ratio of IC50 for equine serum BuChE to IC50 for CDK9/CyclinT1 (unknown origin)
[6] = Selectivity index, ratio of IC50 for human full length CDK2/CyclinA to IC50 for CDK9/CyclinT1 (unknown origin)
HCT-116 [7] = assay: Induction of apoptosis in human HCT-116 cells assessed as viable cells at 10 nM measured after 48 hrs by Annexin V-FITC/PI assay (reference value: 88.5%); assay type: functional; settings: read-out: Activity
HCT-116 [8] = assay: Induction of apoptosis in human HCT-116 cells assessed as early apoptotic cells at 10 nM measured after 48 hrs by Annexin V-FITC/PI assay (reference value: 3.16%); assay type: functional
HCT-116 [9] = assay: Induction of apoptosis in human HCT-116 cells assessed as late apoptotic cells at 10 nM measured after 48 hrs by Annexin V-FITC/PI assay (reference value: 6.06%); assay type: functional
HCT-116 [10] = assay: Induction of apoptosis in human HCT-116 cells assessed as necrotic cells at 10 nM measured after 48 hrs by Annexin V-FITC/PI assay (reference value: 2.31%); assay type: functional
HCT-116 [11] = assay: Cell cycle arrest in human HCT-116 cells assessed as accumulation of cells at G0-G1 phase at 10 nM measured after 48 hrs by flow cytometry (reference value: 62.18%); assay type: functional
HCT-116 [12] = assay: Cell cycle arrest in human HCT-116 cells assessed as accumulation of cells at S phase at 10 nM measured after 48 hrs by flow cytometry (reference value: 31.43%); assay type: functional
HCT-116 [13] = assay: Cell cycle arrest in human HCT-116 cells assessed as accumulation of cells at […] phase at 10 nM measured after 48 hrs by flow cytometry (reference value: 6.39%); assay type: functional

Sequence of Cholinesterase (P81908 whole entry): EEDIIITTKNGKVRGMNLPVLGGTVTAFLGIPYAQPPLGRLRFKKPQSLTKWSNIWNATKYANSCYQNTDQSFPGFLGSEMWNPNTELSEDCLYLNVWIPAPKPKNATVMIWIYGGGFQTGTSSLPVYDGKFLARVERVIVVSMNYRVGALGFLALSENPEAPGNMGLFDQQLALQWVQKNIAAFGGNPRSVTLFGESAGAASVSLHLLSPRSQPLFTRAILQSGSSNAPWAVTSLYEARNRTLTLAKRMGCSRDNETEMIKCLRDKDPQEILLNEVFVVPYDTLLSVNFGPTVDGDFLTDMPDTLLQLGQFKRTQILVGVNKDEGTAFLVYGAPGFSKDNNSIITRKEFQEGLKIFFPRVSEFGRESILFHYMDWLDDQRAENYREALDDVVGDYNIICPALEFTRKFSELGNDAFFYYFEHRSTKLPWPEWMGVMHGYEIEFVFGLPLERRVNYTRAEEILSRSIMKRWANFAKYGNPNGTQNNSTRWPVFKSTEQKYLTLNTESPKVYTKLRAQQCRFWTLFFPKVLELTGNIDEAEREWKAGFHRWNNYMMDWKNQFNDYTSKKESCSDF
Sequence of CDK9/cyclin T1 (O60563 whole entry): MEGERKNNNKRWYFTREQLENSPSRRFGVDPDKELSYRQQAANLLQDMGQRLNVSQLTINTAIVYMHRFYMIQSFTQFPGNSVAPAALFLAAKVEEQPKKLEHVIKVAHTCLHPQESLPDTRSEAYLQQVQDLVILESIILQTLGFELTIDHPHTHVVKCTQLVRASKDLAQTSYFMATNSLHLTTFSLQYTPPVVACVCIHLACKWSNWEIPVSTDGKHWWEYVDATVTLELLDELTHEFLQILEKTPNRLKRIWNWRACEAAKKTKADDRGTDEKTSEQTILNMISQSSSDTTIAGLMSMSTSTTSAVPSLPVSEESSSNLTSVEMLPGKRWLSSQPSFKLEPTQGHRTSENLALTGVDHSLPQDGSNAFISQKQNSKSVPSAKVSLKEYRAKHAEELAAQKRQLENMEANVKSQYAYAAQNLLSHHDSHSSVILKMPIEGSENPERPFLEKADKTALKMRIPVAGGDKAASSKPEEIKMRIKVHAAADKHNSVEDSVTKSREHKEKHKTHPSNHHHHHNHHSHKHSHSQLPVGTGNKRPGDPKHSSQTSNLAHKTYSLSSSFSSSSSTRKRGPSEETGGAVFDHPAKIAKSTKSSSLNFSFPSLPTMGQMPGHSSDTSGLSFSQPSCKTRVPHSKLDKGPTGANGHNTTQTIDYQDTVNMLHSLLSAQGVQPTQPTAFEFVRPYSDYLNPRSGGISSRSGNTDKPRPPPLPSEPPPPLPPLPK
Sequence of CDK9/cyclin T1 (P50750 whole entry): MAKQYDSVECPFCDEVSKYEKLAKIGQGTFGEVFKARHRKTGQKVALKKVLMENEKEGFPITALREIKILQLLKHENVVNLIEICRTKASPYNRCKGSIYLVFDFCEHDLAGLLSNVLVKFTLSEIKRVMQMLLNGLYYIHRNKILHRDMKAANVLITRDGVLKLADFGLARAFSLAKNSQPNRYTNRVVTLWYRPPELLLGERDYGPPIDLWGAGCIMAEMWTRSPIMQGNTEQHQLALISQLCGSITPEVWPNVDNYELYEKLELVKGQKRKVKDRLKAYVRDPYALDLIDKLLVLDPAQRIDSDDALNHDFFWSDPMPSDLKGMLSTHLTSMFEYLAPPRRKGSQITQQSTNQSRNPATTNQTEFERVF
Sequence of Acetylcholinesterase (O42275 whole entry): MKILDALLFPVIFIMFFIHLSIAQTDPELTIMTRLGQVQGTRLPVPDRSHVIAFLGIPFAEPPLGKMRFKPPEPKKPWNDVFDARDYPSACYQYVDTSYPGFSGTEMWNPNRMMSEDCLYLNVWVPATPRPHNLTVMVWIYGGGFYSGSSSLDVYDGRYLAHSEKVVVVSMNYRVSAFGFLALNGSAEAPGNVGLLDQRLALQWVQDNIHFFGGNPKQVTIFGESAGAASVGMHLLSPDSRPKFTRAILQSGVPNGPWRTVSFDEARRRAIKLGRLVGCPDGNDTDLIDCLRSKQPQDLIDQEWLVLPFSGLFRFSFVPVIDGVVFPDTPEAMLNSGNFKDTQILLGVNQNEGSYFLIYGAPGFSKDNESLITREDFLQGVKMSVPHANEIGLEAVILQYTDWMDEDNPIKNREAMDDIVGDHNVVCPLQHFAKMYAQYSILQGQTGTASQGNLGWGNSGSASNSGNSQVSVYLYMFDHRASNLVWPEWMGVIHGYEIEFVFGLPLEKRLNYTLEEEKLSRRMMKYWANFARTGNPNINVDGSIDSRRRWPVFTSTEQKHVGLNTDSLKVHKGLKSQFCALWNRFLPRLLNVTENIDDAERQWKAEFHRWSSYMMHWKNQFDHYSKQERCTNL

SMILES: N[C@H]1CCN(c2c3c(nc4ccc(-c5ccnc(Nc6cccc(S(=O)(=O)N7CCOCC7)c6)c5)cc24)CCCCC3)C1
IC50 (CDK2/Cyclin A2): > 500 nM
GI50 (HCT-116 [1]): 2000 nM
GI50 (SW480): 3200 nM
GI50 (A549): 3300 nM
GI50 (MCF7): 3440 nM
IC50 (Acetylcholinesterase): 28500 nM
IC50 (Cholinesterase): 1980 nM
inhibition [2]: 57.5%

SMILES: N[C@H]1CCN(c2c3c(nc4ccc(-c5ccnc(Nc6ccc(S(=O)(=O)N7CCNCC7)cc6)c5)cc24)CCCCC3)C1
GI50 (HCT-116 [1]): 5820 nM
GI50 (SW480): 7800 nM
GI50 (A549): 7530 nM
GI50 (MCF7): 11600 nM
IC50 (Acetylcholinesterase): 19500 nM
IC50 (Cholinesterase): 2820 nM
inhibition [3]: 84%
IC50 (CDK9/cyclin T1): > 500 nM

SMILES: N[C@H]1CCN(c2c3c(nc4ccc(-c5ccnc(Nc6ccc(S(=O)(=O)N7CCOCC7)cc6)c5)cc24)CCCCC3)C1
GI50 (HCT-116 [1]): 2260 nM
GI50 (SW480): 3680 nM
GI50 (A549): 2610 nM
GI50 (MCF7): 3180 nM
IC50 (Acetylcholinesterase): 24900 nM
IC50 (Cholinesterase): 1820 nM
inhibition [3]: 89.5%
inhibition [2]: 62.4%

SMILES: CN1CCN(S(=O)(=O)c2ccc(Nc3cc(-c4ccc5nc6c(c(N7CC[C@H](N)C7)c5c4)CCCCC6)ccn3)cc2)CC1
GI50 (HCT-116 [1]): 2000 nM
GI50 (SW480): 3220 nM
GI50 (A549): 3210 nM
GI50 (MCF7): 2730 nM
IC50 (Acetylcholinesterase): 24200 nM
IC50 (Cholinesterase): 4380 nM
inhibition [3]: 85%
inhibition [2]: 57.2%

SMILES: N[C@H]1CCN(c2c3c(nc4ccc(-c5ccnc(F)c5)cc24)CCCCC3)C1
IC50 (CDK2/Cyclin A2): > 500 nM
GI50 (HCT-116 [1]): 3980 nM
GI50 (SW480): 4690 nM
GI50 (A549): 8440 nM
GI50 (MCF7): 7080 nM
IC50 (Acetylcholinesterase): 21400 nM
IC50 (Cholinesterase): 2250 nM
inhibition [2]: 73%

SMILES: CS(=O)(=O)c1ccc(Nc2cc(-c3ccc4nc5c(c(N6CC[C@H](N)C6)c4c3)CCCCC5)ccn2)cc1
GI50 (HCT-116 [1]): 3010 nM
GI50 (SW480): 3520 nM
GI50 (A549): 2780 nM
GI50 (MCF7): 3160 nM
IC50 (Acetylcholinesterase): 24200 nM
IC50 (Cholinesterase): 3050 nM
inhibition [3]: 90.1%
inhibition [2]: 80.2%

SMILES: N[C@H]1CCN(c2c3c(nc4ccc(-c5ccnc(NC(=O)C6CCCCC6)c5)cc24)CCCCC3)C1
IC50 (CDK2/Cyclin A2): 59.5 nM
GI50 (HCT-116 [1]): 262 nM
GI50 (SW480): 1260 nM
GI50 (A549): 308 nM
GI50 (MCF7): 404 nM
IC50 (Acetylcholinesterase): 20800 nM
IC50 (Cholinesterase): 1660 nM
Selectivity Index [4]: 9550
Selectivity Index [5]: 763
Selectivity Index [6]: 27
IC50 (CDK9/cyclin T1): 2.18 nM

SMILES: N[C@H]1CCN(c2c3c(nc4ccc(-c5ccnc(NC(=O)C6CC6)c5)cc24)CCCCC3)C1
IC50 (CDK2/Cyclin A2): 5.51 nM
GI50 (HCT-116 [1]): 18 nM
GI50 (SW480): 33 nM
GI50 (A549): 28 nM
GI50 (MCF7): 76 nM
IC50 (Acetylcholinesterase): 31100 nM
IC50 (Cholinesterase): 1960 nM
Selectivity Index [4]: 14200
Selectivity Index [5]: 894
Selectivity Index [6]: 3
IC50 (CDK9/cyclin T1): 2.19 nM

SMILES: N[C@H]1CCN(c2c3c(nc4ccc(-c5ccnc(NC(=O)C6CC6)n5)cc24)-c2ccccc2CCC3)C1
IC50 (CDK2/Cyclin A2): > 500 nM
GI50 (HCT-116 [1]): > 10000 nM
GI50 (SW480): 9530 nM
GI50 (A549): 9470 nM
GI50 (MCF7): 6330 nM
IC50 (Acetylcholinesterase): > 50000 nM
IC50 (Cholinesterase): 12700 nM
inhibition [2]: 72.7%

SMILES: N[C@H]1CCN(c2c3c(nc4ccc(-c5ccnc(NC(=O)C6CC6)n5)cc24)CCCCCC3)C1
IC50 (CDK2/Cyclin A2): 18.7 nM
GI50 (HCT-116 [1]): 14 nM
GI50 (SW480): 18 nM
GI50 (A549): 64 nM
GI50 (MCF7): 71 nM
IC50 (Acetylcholinesterase): 20700 nM
IC50 (Cholinesterase): 2730 nM
Selectivity Index [4]: 7200
Selectivity Index [5]: 948
Selectivity Index [6]: 7
IC50 (CDK9/cyclin T1): 2.88 nM

SMILES: N[C@H]1CCN(c2c3c(nc4ccc(-c5ccnc(Nc6ccc(S(=O)(=O)N7CCCC7)cc6)c5)cc24)CCCCC3)C1
GI50 (HCT-116 [1]): 6020 nM
GI50 (SW480): 3520 nM
GI50 (A549): 2690 nM
GI50 (MCF7): 3240 nM
IC50 (Acetylcholinesterase): > 50000 nM
IC50 (Cholinesterase): 4960 nM
inhibition [3]: 74.8%
IC50 (CDK9/cyclin T1): > 500 nM

GI50 (HCT-116 [1]): 9 nM
GI50 (SW480): 8 nM
GI50 (A549): 6 nM
GI50 (MCF7): 12 nM
SMILES: CCc1cnn2c(NCc3ccc[n+]([O-])c3)cc(N3CCCC[C@H]3CCO)nc12 [DINACICLIB]
viability at 0.01 µM (HCT-116 [7]): 55.3%
Activity (HCT-116 [8]): 33.2%
Activity (HCT-116 [9]): ~10.4%
Activity (HCT-116 [10]): 1.14%
Activity (HCT-116 [11]): 45.02%
Activity (HCT-116 [12]): 44.93%
Activity (HCT-116 [13]): 10.05%

SMILES: N[C@H]1CCN(c2c3c(nc4ccc(-c5ccnc(NC(=O)C6CCC6)c5)cc24)CCCCCC3)C1
IC50 (CDK2/Cyclin A2): 7.74 nM
GI50 (HCT-116 [1]): 46 nM
GI50 (SW480): 118 nM
GI50 (A549): 109 nM
GI50 (MCF7): 108 nM
IC50 (Acetylcholinesterase): 26500 nM
IC50 (Cholinesterase): 698 nM
Selectivity Index [4]: 8920
Selectivity Index [5]: 235
Selectivity Index [6]: 3
IC50 (CDK9/cyclin T1): 2.97 nM

SMILES: N[C@H]1CCN(c2c3c(nc4ccc(-c5cc(NC(=O)C6CC6)ncn5)cc24)CCCCC3)C1
IC50 (CDK2/Cyclin A2): 14.7 nM
GI50 (HCT-116 [1]): 201 nM
GI50 (SW480): 316 nM
GI50 (A549): 166 nM
GI50 (MCF7): 161 nM
IC50 (Acetylcholinesterase): 7200 nM
IC50 (Cholinesterase): 3850 nM
Selectivity Index [4]: 1250
Selectivity Index [5]: 669
Selectivity Index [6]: 3
IC50 (CDK9/cyclin T1): 5.75 nM

SMILES: CN(C)S(=O)(=O)c1ccc(Nc2cc(-c3ccc4nc5c(c(N6CC[C@H](N)C6)c4c3)CCCCC5)ccn2)cc1
IC50 (CDK2/Cyclin A2): > 500 nM
GI50 (HCT-116 [1]): 2180 nM
GI50 (SW480): 1810 nM
GI50 (A549): 1990 nM
GI50 (MCF7): 3110 nM
IC50 (Acetylcholinesterase): 35200 nM
IC50 (Cholinesterase): 1060 nM
Selectivity Index [4]: 346
Selectivity Index [5]: 10
Selectivity Index [6]: 0.5
IC50 (CDK9/cyclin T1): 102 nM
